Assay results taken from the supplement of paper PMC10307832.

Legend:
Assay in all cases: relative viability (nuclei count vs DMSO), 5 days (fraction); higher = more cells survive
Idelalisib + Lapatinib = compound: CC[C@H](Nc1ncnc2[nH]cnc12)c1nc2cccc(F)c2c(=O)n1-c1ccccc1 [Idelalisib] + CS(=O)(=O)CCNCc1ccc(-c2ccc3ncnc(Nc4ccc(OCc5cccc(F)c5)c(Cl)c4)c3c2)o1 [Lapatinib] (partner 2 µM)
How it was run: (§1)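 Lung cancer cell lines, seeded in 1536-well plates, were treated the following day by pin tool with a single drug or with five library-drug doses (not always all listed) in √10 steps on top of a fixed anchor-drug dose. Cells were fixed and nuclei stained in one step after 5 days, and nuclei were counted. Relative viability is the nuclei count for treated wells divided by that for vehicle wells, reported as medians of duplicate plates.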

Pemetrexed + Lapatinib = compound: Nc1nc2[nH]cc(CCc3ccc(C(=O)N[C@@H](CCC(=O)O)C(=O)O)cc3)c2c(=O)[nH]1 [Pemetrexed] + CS(=O)(=O)CCNCc1ccc(-c2ccc3ncnc(Nc4ccc(OCc5cccc(F)c5)c(Cl)c4)c3c2)o1 [Lapatinib] (partner 2 µM)
How it was run: as §1

Pemetrexed + Linsitinib = compound: Nc1nc2[nH]cc(CCc3ccc(C(=O)N[C@@H](CCC(=O)O)C(=O)O)cc3)c2c(=O)[nH]1 [Pemetrexed] + C[C@]1(O)C[C@@H](c2nc(-c3ccc4ccc(-c5ccccc5)nc4c3)c3c(N)nccn32)C1 [Linsitinib] (partner 1 µM)
How it was run: as §1

Idelalisib + Vorinostat = compound: CC[C@H](Nc1ncnc2[nH]cnc12)c1nc2cccc(F)c2c(=O)n1-c1ccccc1 [Idelalisib] + O=C(CCCCCCC(=O)Nc1ccccc1)NO [Vorinostat] (partner 1 µM)
How it was run: as §1

| Cell Line | relative viability (Idelalisib + Lapatinib; first compound 0.04 µM) | relative viability (Idelalisib + Lapatinib; first compound 0.1265 µM) | relative viability (Idelalisib + Lapatinib; first compound 0.4 µM) | relative viability (Idelalisib + Lapatinib; first compound 1.265 µM) | relative viability (Idelalisib + Lapatinib; first compound 4 µM) | relative viability (Pemetrexed + Lapatinib; first compound 0.002 µM) | relative viability (Pemetrexed + Lapatinib; first compound 0.006325 µM) | relative viability (Pemetrexed + Lapatinib; first compound 0.02 µM) | relative viability (Pemetrexed + Lapatinib; first compound 0.06325 µM) | relative viability (Pemetrexed + Lapatinib; first compound 0.2 µM) | relative viability (Pemetrexed + Linsitinib; first compound 0.002 µM) | relative viability (Pemetrexed + Linsitinib; first compound 0.006325 µM) | relative viability (Pemetrexed + Linsitinib; first compound 0.02 µM) | relative viability (Pemetrexed + Linsitinib; first compound 0.06325 µM) | relative viability (Pemetrexed + Linsitinib; first compound 0.2 µM) | relative viability (Idelalisib + Vorinostat; first compound 0.04 µM) | relative viability (Idelalisib + Vorinostat; first compound 0.1265 µM) | relative viability (Idelalisib + Vorinostat; first compound 0.4 µM) | relative viability (Idelalisib + Vorinostat; first compound 1.265 µM) | relative viability (Idelalisib + Vorinostat; first compound 4 µM) |
| --- | --- | --- | --- | --- | --- | --- | --- | --- | --- | --- | --- | --- | --- | --- | --- | --- | --- | --- | --- | --- |
| HCC-827 | 0.225 | 0.191 | 0.176 | 0.178 | 0.157 | 0.178 | 0.196 | 0.169 | 0.191 | 0.166 | 0.843 | 0.946 | 1.02 | 0.997 | 0.846 | 0.957 | 0.664 | 0.897 | 0.848 | 0.969 |
| COR-L23 | 1.09 | 1.14 | 0.711 | 1.29 | 0.926 | 0.853 | 0.815 | 1.05 | 0.365 | 0.192 | 0.839 | 0.863 | 1.04 | 0.294 | 0.177 | 0.535 | 0.396 | 0.396 | 0.535 | 0.421 |
| NCI-H3122 | 1.06 | 0.981 | 1.05 | 1.03 | 1.05 | 1.01 | 1.02 | 1.02 | 0.97 | 0.847 | 1.01 | 1 | 0.949 | 1.01 | 0.646 | 1.01 | 1.07 | 0.933 | 1.02 | 0.579 |
| NCI-H1793 | 0.664 | 0.635 | 0.406 | 0.583 | 0.651 | 0.543 | 0.769 | 0.619 | 0.704 | 0.619 | 0.862 | 0.722 | 0.676 | 0.841 | 0.779 | 0.764 | 0.699 |  | 0.75 | 0.582 |
| BEN | 0.88 | 0.635 | 0.613 | 0.73 | 0.602 | 0.811 | 0.594 | 0.817 | 0.663 | 0.624 | 0.855 | 0.84 | 0.897 | 0.868 | 0.731 | 0.531 | 0.53 | 0.552 | 0.59 | 0.514 |
| NCI-H647 | 1.13 | 1.27 | 0.834 | 0.95 | 0.546 |  | 1.08 | 1.16 | 0.889 | 0.264 |  | 0.886 | 1.29 | 1.08 | 0.332 | 0.686 | 0.435 | 0.546 | 0.247 | 0.141 |
| PC-14 | 0.329 | 0.299 | 0.309 | 0.306 | 0.252 | 0.194 | 0.271 | 0.38 | 0.291 | 0.223 | 0.922 | 0.901 | 1.01 | 0.759 | 0.184 | 0.901 | 0.709 | 0.633 | 0.363 | 0.68 |
| HCC-78 | 0.709 | 0.81 | 0.577 | 0.916 | 0.754 |  | 0.796 | 0.58 | 0.223 | 0.153 |  | 0.384 | 0.482 | 0.26 | 0.18 | 0.462 | 0.448 | 0.393 | 0.468 | 0.332 |
| NCI-H1666 | 0.549 | 0.641 | 0.419 | 0.505 | 0.456 | 0.678 | 0.647 | 0.566 | 0.575 | 0.394 | 0.71 | 0.774 | 0.829 | 0.73 | 0.615 | 1.01 | 1.02 | 0.962 | 1.05 | 1.08 |
| COR-L 105 | 0.385 | 0.353 | 0.294 | 0.374 | 0.362 | 0.404 | 0.389 | 0.375 | 0.406 | 0.315 | 0.804 | 0.872 | 1.05 | 0.709 | 1.03 | 0.859 | 0.876 | 0.778 | 0.724 | 1.11 |
| LU99A | 0.923 | 0.912 | 0.862 | 1.14 | 1.04 | 0.926 | 0.909 | 0.991 | 0.97 | 0.744 | 0.501 | 0.496 | 0.634 | 0.44 | 0.345 | 0.536 | 0.468 | 0.387 | 0.535 | 0.506 |
| NCI-H596 | 1.04 | 1.13 | 0.895 | 1.16 | 0.934 | 1.03 | 1.09 | 1.07 | 0.82 | 0.644 | 1.08 | 0.983 | 1.04 | 0.908 | 0.54 | 0.622 | 0.595 | 0.511 | 0.567 | 0.415 |
| 201T | 0.978 | 1.05 | 1.04 | 1.13 | 1.02 | 0.977 | 1.04 | 1.1 | 1.07 | 1 | 1.13 | 1.01 | 1.1 | 1.09 | 1.01 | 1.01 | 0.982 | 0.874 | 0.997 | 0.755 |
| HCC-15 | 0.828 | 0.847 | 0.818 | 0.983 | 0.894 | 0.751 | 0.763 | 1 | 0.655 | 0.444 | 0.857 | 0.773 | 0.922 | 0.753 | 0.518 | 0.764 | 0.865 | 0.888 | 0.889 | 0.69 |
